The source of these data is patent US20260199444A1, “VACCINES AGAINST PROTEIN TYROSINE PHOSPHATASE RECEPTOR TYPE Z1 (PTPRZ1) -POSITIVE TUMORS” (ALTEVAX, priority 2022, published 2026).

Experiment [1] concerns HLA-A2/DR1 mice. As to the kind of experiment: Melanin-based vaccine (plus CpG-28) subcutaneous immunization, CD8 T-cell response by IFNg-SFC count of re-stimulated splenocytes. Type of experiment: in vivo. The following applies: for T-cell Immune response: mean +/− SEM (number of mice): peptide 10 μg/mouse with synthetic melanin (peptide/L-Dopa 1/4) and CpG-28 10 μg/mouse, subcutaneous, day 8, splenocytes re-stimulated with the corresponding MHC class I epitope; for immune response after immunization (in words): melanin-based vaccine, HLA-A2/DR1 mice. The text has this: For the purpose of selecting a relevant PTPRZ1 antigen to be used in human patients, several peptides containing various PTPRZ1 immune epitopes were screened. The immunogenicity of these various peptides were screened by vaccinations in HLA-A2/DR1 mice (also known as Surel1 model). HLA-A2/DR1 mice are transgenic mice mimicking the human's immune system. As a vaccine procedure for screening, a melanin-based vaccine was used, as described in WO2021165306.
Using a melanin-based vaccine in HLA-A2/DR1 mice, these epitopes were then screened using peptides (SEQ ID NO: 5 to SEQ ID NO: 8) containing the epitope and an additional cysteine at the NH2-terminal, as it was disclosed in WO2021165306 that this modification increases the efficacy of melanin-based vaccine.
For immunizations, L-Dopa (0.8 mg/ml) underwent an oxidative polymerization at pH 8.5 in aerobic conditions for 2 hours at 60° C. The reaction mixture was then filtered on a 10 kDa filter, and the retentate containing the synthetic melanin was resuspended in phosphate buffer. Peptides (10 μg/mouse) containing the epitopes (underlined) were then added (at the weight ratio peptide/L-Dopa=1/4) and the mixtures were used for subcutaneous immunizations in mice. Phosphorothioate oligonucleotide CpG-28 (5′-[…], SEQ ID NO: 16) was added to vaccine formulations (10 μg/mouse) just before the immunizations. Mice were sacrificed on day 8 and the CD8 T-cell response was performed as described in Carpentier; 2017. Briefly, splenocytes were re-stimulated in vitro with the corresponding MHC class I-epitope (non-conjugated to melanin) and the numbers of IFNg-SFCs (Spot forming cells) were measured and expressed as Mean+/−S.E.M.

The test system of experiment [2] is transgenic SURE mice. As to the kind of experiment: Cross reactivity of T-cell responses after immunization with SEQ 14, splenocytes re-stimulated with SEQ 14 or native epitope SEQ 4. The class given is in vivo. The following applies: immunized with SEQ ID NO: 14, day 8, re-stimulation 18 hours, 5 μg/ml to 0.3 ng/ml, FIG. 1. Here is the method:
FIG. 1: cross reactivity of T-cell responses obtained after immunizations with SEQ 14 in transgenic SURE mice. Mice were immunized against SEQ 14, as described in table 1, and sacrificed on day 8. The splenocytes (5.10^5 cells/well) were re-stimulated in vitro for 18 hours with either SEQ 14 or the native epitope SEQ 4 (both non-conjugated to melanin), at various concentrations (5 μg/ml to 0.3 ng/ml) and the numbers of IFNg-SFCs (Spot forming cells) were measured after a 18-hour incubation (representative experiments from 3 experiments)
Mice were thus immunized with SEQ ID NO: 14, and it was checked whether T-cell response triggered by SEQ ID NO: 14 was able to similarly recognize the mutated epitote SEQ ID NO: 15 and the native epitope SEQ ID NO: 4.

For experiment [3], the system named is HLA-A2/DR1 mice. As to the kind of experiment: Peptide plus CpG-28 without melanin, subcutaneous immunization, CD8 T-cell response by IFNg-SFC count of re-stimulated splenocytes. The class given is in vivo. Particulars: for T-cell Immune response: mean +/− SEM (number of mice): peptide 10 μg/mouse with CpG-28 10 μg/mouse, no melanin, subcutaneous, day 8, splenocytes re-stimulated with the corresponding MHC class I epitope. Here is the method:
In a different adjuvant formulation, SEQ ID NO: 4 and SEQ ID NO: 14 were studied in HLA-A2/DR1 mice.
The peptides (10 μg/mouse) were mixed with the TLR9 agonist CpG-28 (SEQ ID NO: 16) (10 μg/mouse) and the mixtures were used for subcutaneous immunizations in mice. Mice were sacrificed on day 8 and the CD8 T-cell response was performed as described in Carpentier; 2017. Briefly, splenocytes were re-stimulated in vitro with the corresponding MHC class I-epitope (non-conjugated to melanin) and the numbers of IFNg-SFCs (Spot forming cells) were measured and expressed as Mean+/−S.E.M.

The subject of experiment [4] is patients. The following applies: glioblastoma patients, Hilf et al (2019); cited from earlier work.

As for C AIIDGVESV (CAIIDGVESV) [SEQ ID NO: 7], the “T-cell Immune response: mean +/− SEM (number of mice)” value (shortened to “T-cell Immune response: mean +/− SEM”) in experiment [1] is given as 3 +/− 1 (n = 4) IFNg-SFCs.
For the substance C MIWEHNVEV (CMIWEHNVEV) [SEQ ID NO: 8], the “immune response after immunization (in words)” value in experiment [1] is “able to trigger an immune response”; in experiment [1] (listed as SEQ 8), “weak”. Besides, in experiment [1], the “T-cell Immune response: mean +/− SEM” value is recorded as 24 +/− 8 (n = 8) IFNg-SFCs.
For CKVFAGIPTV [SEQ ID NO: 5], in experiment [1], the “immune response after immunization (in words)” value was “powerful immune response” and the “T-cell Immune response: mean +/− SEM” value is reported as 288 +/− 37 (n = 8) IFNg-SFCs.
Consider CVLDSHIHAYVNALLIPGPAGK [SEQ ID NO: 6], for which the “T-cell Immune response: mean +/− SEM” value in experiment [1] is 7 +/− 5 (n = 4) IFNg-SFCs.
For the substance “H MIWEHNVEV (HMIWEHNVEV) [SEQ ID NO: 11]”, the “T-cell Immune response: mean +/− SEM” value in experiment [1] is reported as 60 +/− 25 (n = 7) IFNg-SFCs.
On to KIWEHNVEV [SEQ ID NO: 15], for which the “T-cell Immune response: mean +/− SEM” value in experiment [1] is given as 118 +/− 26 (n = 7) IFNg-SFCs.
For the substance “KK KIWEHNVEV (KKKIWEHNVEV) [SEQ ID NO: 14]”, the “reactivity against the native epitope (SEQ ID NO: 4) of lymphocytes primed with the modified epitope, compared with reactivity against the modified epitope” value in experiment [2] is reported as “even higher”. Besides, in experiment [1], the “immune response after immunization (in words)” value is listed as “strong CD8 immune response” and the “T-cell Immune response: mean +/− SEM” value is 287 +/− 26 (n = 8) IFNg-SFCs. Also, the “T-cell Immune response: mean +/− SEM” value in experiment [3] was 25 +/− 13 (n = 7) IFNg-SFCs. Also, in experiment [3] (peptide with CpG-28, no melanin, compared with SEQ ID NO: 4), the “CD8 immune response after immunization without melanin (in words)” value is recorded as “more potent”.
“KP MIWEHNVEV (KPMIWEHNVEV) [SEQ ID NO: 13]”: the “T-cell Immune response: mean +/− SEM” value in experiment [1] was 80 +/− 34 (n = 7) IFNg-SFCs.
As to “MIWEHNVEV [SEQ ID NO: 4, reference compound]”, the “T-cell Immune response: mean +/− SEM” value in experiment [1] is recorded as 3 +/− 1 (n = 7) IFNg-SFCs; in experiment [3], 11 +/− 4 (n = 7) IFNg-SFCs. Moreover, the “reactive CD8+ T cells against the peptide after immunization of patients” value in experiment [4] is “found in some patients”.
Consider “P MIWEHNVEV (PMIWEHNVEV) [SEQ ID NO: 10]”, for which the “T-cell Immune response: mean +/− SEM” value in experiment [1] is listed as 40 +/− 15 (n = 7) IFNg-SFCs.
Regarding “PK MIWEHNVEV (PKMIWEHNVEV) [SEQ ID NO: 12]”, in experiment [1], the “T-cell Immune response: mean +/− SEM” value is listed as 61 +/− 30 (n = 7) IFNg-SFCs.
